Experimental data taken from PMC2263054, “Functional evolution of the vitamin D and pregnane X receptors” (BMC Evolutionary Biology, 2007).
Structures can show the parent of a compound that is named as a salt. Where two headings read alike, the source gives them in different places.

Columns and labels:
Format in all cases: cell-based
Zebrafish VDR = molecular target: T1, Zebrafish VDR (Danio rerio, UniProt Q9PTN2); assay: luciferase reporter transactivation assay in HepG2-NTCP cells, GAL4/zfVDR LBD chimera with tk-UAS-Luc; details: screening for activators, at least three concentrations of each drug
T1 sequence (Q9PTN2 121-453): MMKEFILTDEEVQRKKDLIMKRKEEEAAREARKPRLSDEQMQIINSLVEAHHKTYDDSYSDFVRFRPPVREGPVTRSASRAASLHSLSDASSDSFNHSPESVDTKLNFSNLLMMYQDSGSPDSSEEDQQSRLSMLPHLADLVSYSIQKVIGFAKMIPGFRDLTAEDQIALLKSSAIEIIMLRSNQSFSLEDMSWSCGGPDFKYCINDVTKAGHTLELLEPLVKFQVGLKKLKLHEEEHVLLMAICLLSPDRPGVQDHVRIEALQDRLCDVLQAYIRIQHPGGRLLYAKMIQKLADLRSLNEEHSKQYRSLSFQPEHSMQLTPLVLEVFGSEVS

Xenopus laevis VDR = molecular target: T2, Xenopus laevis VDR (Xenopus laevis, UniProt O13124); assay: luciferase reporter transactivation assay in HepG2-NTCP cells, GAL4/xlVDR LBD chimera with tk-UAS-Luc; details: screening for activators, at least three concentrations of each drug
T2 sequence (O13124 90-422): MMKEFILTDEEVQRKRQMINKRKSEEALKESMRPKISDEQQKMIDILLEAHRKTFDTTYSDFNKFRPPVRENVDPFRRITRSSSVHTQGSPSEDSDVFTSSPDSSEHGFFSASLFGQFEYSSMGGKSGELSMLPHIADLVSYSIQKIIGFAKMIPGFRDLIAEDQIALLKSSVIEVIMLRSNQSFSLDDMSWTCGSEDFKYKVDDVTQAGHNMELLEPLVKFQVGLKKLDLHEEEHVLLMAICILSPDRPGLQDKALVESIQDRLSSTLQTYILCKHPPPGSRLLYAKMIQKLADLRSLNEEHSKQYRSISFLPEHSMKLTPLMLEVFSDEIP

Sea lamprey VDR = molecular target: T3, Sea lamprey VDR (Petromyzon marinus, UniProt Q7ZZY9)
T3 sequence (Q7ZZY9 92-406): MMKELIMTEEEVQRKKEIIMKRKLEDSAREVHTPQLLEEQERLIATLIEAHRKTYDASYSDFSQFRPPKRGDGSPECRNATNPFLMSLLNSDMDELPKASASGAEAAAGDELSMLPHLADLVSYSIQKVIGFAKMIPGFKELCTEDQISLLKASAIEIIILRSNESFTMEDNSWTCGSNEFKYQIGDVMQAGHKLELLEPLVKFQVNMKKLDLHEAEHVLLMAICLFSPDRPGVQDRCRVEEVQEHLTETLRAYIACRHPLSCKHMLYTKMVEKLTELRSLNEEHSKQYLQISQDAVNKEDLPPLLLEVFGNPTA

[1] = screening for activators, at least three concentrations of each drug

CC1=C(/C=C/C(C)=C/C=C/C(C)=C/C(=O)O)C(C)(C)CCC1O (stereo not drawn) [4-Hydroxretinoic acid]
No effect: Effect on zebrafish VDR (Zebrafish VDR) | Effect on Xenopus laevis VDR (Xenopus laevis VDR) | Effect on sea lamprey VDR (Sea lamprey VDR; [1])

C[C@H](CCC(=O)NCC(=O)O)[C@H]1CC[C@H]2[C@@H]3[C@H](O)C[C@@H]4C[C@H](O)CC[C@]4(C)[C@H]3C[C@H](O)[C@]12C.O [Glycocholic acid hydrate]
No effect: Effect on zebrafish VDR (Zebrafish VDR) | Effect on Xenopus laevis VDR (Xenopus laevis VDR) | Effect on sea lamprey VDR (Sea lamprey VDR; [1])

Clc1ccc(-c2nc3sccn3c2/C=N/OCc2ccc(Cl)c(Cl)c2)cc1 [CITCO]
No effect: Effect on zebrafish VDR (Zebrafish VDR) | Effect on Xenopus laevis VDR (Xenopus laevis VDR) | Effect on sea lamprey VDR (Sea lamprey VDR; [1])

Cc1cc(O)c(C)c2c1O[C@](C)(CCC[C@H](C)CCC[C@H](C)CCCC(C)C)CC2 [Beta-tocopherol]
No effect: Effect on zebrafish VDR (Zebrafish VDR) | Effect on Xenopus laevis VDR (Xenopus laevis VDR) | Effect on sea lamprey VDR (Sea lamprey VDR; [1])

Hyperforin
No effect: Effect on zebrafish VDR (Zebrafish VDR) | Effect on Xenopus laevis VDR (Xenopus laevis VDR) | Effect on sea lamprey VDR (Sea lamprey VDR; [1])

CCC[C@@H](C)[C@H]1CC[C@H]2[C@@H]3[C@H](O)C[C@@H]4C[C@H](O)CC[C@]4(C)[C@H]3C[C@H](O)[C@]12C [5b-Cholan-3a,7a,12a-triol]
No effect: Effect on zebrafish VDR (Zebrafish VDR) | Effect on Xenopus laevis VDR (Xenopus laevis VDR) | Effect on sea lamprey VDR (Sea lamprey VDR; [1])

Clc1cnc(Oc2ccc(Oc3ncc(Cl)cc3Cl)cc2)c(Cl)c1 [TCPOBOP]
No effect: Effect on zebrafish VDR (Zebrafish VDR) | Effect on Xenopus laevis VDR (Xenopus laevis VDR) | Effect on sea lamprey VDR (Sea lamprey VDR; [1])

C[C@H]([C@H](O)CCC(C)(C)O)[C@H]1CC[C@@]2(O)C3=CC(=O)[C@@H]4C[C@@H](O)[C@@H](O)C[C@]4(C)[C@H]3CC[C@]12C [Ecdysone]
No effect: Effect on zebrafish VDR (Zebrafish VDR) | Effect on Xenopus laevis VDR (Xenopus laevis VDR) | Effect on sea lamprey VDR (Sea lamprey VDR; [1])

C/C=C1\C(=O)C[C@H]2[C@@H]3CCC4=CC(=O)CC[C@]4(C)[C@H]3CC[C@]12C [Z-Guggulsterone]
No effect: Effect on zebrafish VDR (Zebrafish VDR) | Effect on Xenopus laevis VDR (Xenopus laevis VDR) | Effect on sea lamprey VDR (Sea lamprey VDR; [1])

C[C@H](CC[C@@H]1OC1(C)C)[C@H]1CC[C@H]2[C@@H]3CC=C4C[C@@H](O)CC[C@]4(C)[C@H]3CC[C@]12C [24(S)-,25-Epoxycholesterol]
No effect: Effect on zebrafish VDR (Zebrafish VDR) | Effect on Xenopus laevis VDR (Xenopus laevis VDR) | Effect on sea lamprey VDR (Sea lamprey VDR; [1])

CC(=O)N[C@@H](CSC/C=C(\C)CC/C=C(\C)CCC=C(C)C)C(=O)O [Acetyl-farnesyl-cysteine]
No effect: Effect on zebrafish VDR (Zebrafish VDR) | Effect on Xenopus laevis VDR (Xenopus laevis VDR) | Effect on sea lamprey VDR (Sea lamprey VDR; [1])

C/C(=C\c1ccc(C(=O)O)cc1)c1ccc2c(c1)C(C)(C)CCC2(C)C [TTNPB]
No effect: Effect on zebrafish VDR (Zebrafish VDR) | Effect on Xenopus laevis VDR (Xenopus laevis VDR) | Effect on sea lamprey VDR (Sea lamprey VDR; [1])

C[C@]12CC[C@H](O)CC1=CC[C@@H]1[C@@H]2CC[C@]2(C)C(=O)CC[C@@H]12 [DHEA]
No effect: Effect on zebrafish VDR (Zebrafish VDR) | Effect on Xenopus laevis VDR (Xenopus laevis VDR) | Effect on sea lamprey VDR (Sea lamprey VDR; [1])

C[C@]12CCC(=O)C=C1CC[C@@H]1[C@@H]2C(=O)C[C@@]2(C)[C@H]1CC[C@]2(O)C(=O)CO [Cortisone]
No effect: Effect on zebrafish VDR (Zebrafish VDR) | Effect on Xenopus laevis VDR (Xenopus laevis VDR) | Effect on sea lamprey VDR (Sea lamprey VDR)

CCCCC/C=C/C=C1/C(=O)C=C[C@@H]1C/C=C\CCCC(=O)O [15-Deoxy-D12,14-prostaglandin J2]
No effect: Effect on zebrafish VDR (Zebrafish VDR) | Effect on Xenopus laevis VDR (Xenopus laevis VDR) | Effect on sea lamprey VDR (Sea lamprey VDR; [1])

C[C@]12CC[C@@H]3c4ccc(O)cc4CC[C@H]3[C@@H]1C[C@@H](O)C2=O [16a-Hydroxyestrone]
No effect: Effect on zebrafish VDR (Zebrafish VDR) | Effect on Xenopus laevis VDR (Xenopus laevis VDR) | Effect on sea lamprey VDR (Sea lamprey VDR; [1])

CC1=C(/C=C/C(C)=C/C=C/C(C)=C/C(=O)Nc2ccc(O)cc2)C(C)(C)CCC1 [4-Hydroxyphenylretinamide]
No effect: Effect on zebrafish VDR (Zebrafish VDR) | Effect on Xenopus laevis VDR (Xenopus laevis VDR) | Effect on sea lamprey VDR (Sea lamprey VDR; [1])

CC(=O)[C@H]1CC[C@H]2[C@@H]3CC[C@@H]4C[C@H](OS(=O)(=O)O)CC[C@]4(C)[C@H]3CC[C@]12C [5b-pregnan-3a-ol-20-one sulfate]
No effect: Effect on zebrafish VDR (Zebrafish VDR) | Effect on Xenopus laevis VDR (Xenopus laevis VDR) | Effect on sea lamprey VDR (Sea lamprey VDR; [1])

CC(C)(Oc1ccc(CCNC(=O)c2ccc(Cl)cc2)cc1)C(=O)O [Bezafibrate]
No effect: Effect on zebrafish VDR (Zebrafish VDR) | Effect on Xenopus laevis VDR (Xenopus laevis VDR) | Effect on sea lamprey VDR (Sea lamprey VDR; [1])

CC(C)=CCC/C(C)=C/CC/C(C)=C/CC/C(C)=C/CC1=C(C)C(=O)c2ccccc2C1=O [Vitamin K2]
No effect: Effect on zebrafish VDR (Zebrafish VDR) | Effect on Xenopus laevis VDR (Xenopus laevis VDR) | Effect on sea lamprey VDR (Sea lamprey VDR; [1])

CCCCC[C@H](O)/C=C/C=C\CCCCCCCC(=O)O [13(S)-Hydroxy-9Z,11E-octadecadienoic acid]
No effect: Effect on zebrafish VDR (Zebrafish VDR) | Effect on Xenopus laevis VDR (Xenopus laevis VDR) | Effect on sea lamprey VDR (Sea lamprey VDR; [1])

CC1=C(/C=C/C(C)=C/C=C/C(C)=C/C=C/C=C(C)/C=C/C=C(C)/C=C/C2=C(C)CCCC2(C)C)C(C)(C)CCC1 [Beta-carotene]
No effect: Effect on zebrafish VDR (Zebrafish VDR) | Effect on Xenopus laevis VDR (Xenopus laevis VDR) | Effect on sea lamprey VDR (Sea lamprey VDR; [1])

C[C@H](CCC(=O)O)[C@H]1CC[C@H]2[C@@H]3[C@H](O)C[C@@H]4C[C@H](O)CC[C@]4(C)[C@H]3CC[C@]12C [Chenodeoxycholic acid]
No effect: Effect on zebrafish VDR (Zebrafish VDR) | Effect on Xenopus laevis VDR (Xenopus laevis VDR) | Effect on sea lamprey VDR (Sea lamprey VDR)

Cc1ccc(C)c(OCCCC(C)(C)C(=O)O)c1 [Gemfibrozil]
No effect: Effect on zebrafish VDR (Zebrafish VDR) | Effect on Xenopus laevis VDR (Xenopus laevis VDR) | Effect on sea lamprey VDR (Sea lamprey VDR; [1])

CC(=O)[C@H]1[C@H](C#N)C[C@H]2[C@@H]3CC=C4C[C@@H](O)CC[C@]4(C)[C@H]3CC[C@@]21C [Pregnenolone-16a-carbonitrile]
No effect: Effect on zebrafish VDR (Zebrafish VDR) | Effect on Xenopus laevis VDR (Xenopus laevis VDR) | Effect on sea lamprey VDR (Sea lamprey VDR; [1])
